Consider five molecules from US10800791B2, “Triazole ACC inhibitors and uses thereof” (Gilead Apollo, LLC, priority 2015, dated 2020).

SMILES strings stand for the structures. In brackets after ≈: the same amount, converted by molar mass.

Usually MIC stands for the least concentration at which growth counts as inhibited. Usually IC50 stands for the concentration that gives 50% inhibition.

Assay [1] deals with C. albicans. Kind of assay: Antifungal Activity Assay (broth microtiter MIC), C. albicans. Type of assay: cell-based, Candida albicans. The settings on record: Candida albicans, ATCC90028, 48 h, Table 3b (additional results); ATCC 90028; 3 replicates; MIC recorded at 48 h; read-out: MIC, C. albicans ATCC 90028. The essentials: (§1)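 MIC read by eye at 48 h, comparing challenged wells with the growth control. Yeasts grown overnight on Sabouraud dextrose agar at 35° C, suspended in RPMI 1640+MOPS and added at 2.5×10^3 CFU/mL final, following CLSI M27-A3.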

The subject of assay [2] is Septoria tritici (St). Kind of assay: Growth inhibition assay of fungal pathogens, St. As to conditions: Zymoseptoria tritici, 48 h, Septoria tritici; growth inhibition at 48 hours vs 2% DMSO control; read-out: Concentration at 90% Inhibition St. Type of assay: cell-based. The essentials:
(§2)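 Percent inhibition derived at 48 hours from OD600 and visual scores versus 2% DMSO control, with media+DMSO blank as background. Spore inocula in 17% V8 medium were sized from 48 h growth curves; compounds tested at final 50/10/2 or 2/0.4/0.08 ppm.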

Assay [3] concerns C. krusei. As to the kind of experiment: Antifungal Activity Assay (broth microtiter MIC), C. krusei. The settings on record: Pichia kudriavzevii, ATCC6258, 48 h, Table 3b (additional results); ATCC 6258; 3 replicates; MIC recorded at 48 h; read-out: MIC, C. krusei ATCC 6258. Type of assay: cell-based, Candida krusei. In a few lines: as §1
Assay [4] has as its system Rhizoctonia solani (Rs). As to the kind of experiment: Growth inhibition assay of fungal pathogens, Rs. Type of assay: cell-based. As to conditions: 48 h, mycelial plugs, growth inhibition at 48 hours vs 2% DMSO control, read-out: Concentration at 90% Inhibition Rs.
For assay [5], the system named is Botrtyis cinerea (Bc). As to the kind of experiment: Growth inhibition assay of fungal pathogens, Bc. It is filed as cell-based. As to conditions: 48 h, Botrtyis cinerea; growth inhibition at 48 hours vs 2% DMSO control; read-out: Concentration at 90% Inhibition Bc. The essentials: as §2
In assay [6] the test system is Fusarium moniliforme (Fm). Kind of assay: Growth inhibition assay of fungal pathogens, Fm. Type of assay: cell-based. The settings on record: Fusarium verticillioides, 48 h, Fusarium moniliforme; growth inhibition at 48 hours vs 2% DMSO control; read-out: Concentration at 90% Inhibition Fm. The essentials: as §2
Assay [7] has as its system Phytophthora capsici (Pc). Kind of assay: Growth inhibition assay of fungal pathogens, Pc. Type of assay: cell-based. The settings on record: 48 h, growth inhibition at 48 hours vs 2% DMSO control, read-out: Concentration at 90% Inhibition Pc. In a few lines: as §2
Assay [8] deals with Diplodia maydis (Dm). As to the kind of experiment: Growth inhibition assay of fungal pathogens, Dm. Type of assay: cell-based. The settings on record: Stenocarpella maydis, 48 h, Diplodia maydis; growth inhibition at 48 hours vs 2% DMSO control; read-out: Concentration at 90% Inhibition Dm. The essentials:
as §2

Assay [9] concerns Fusarium virguliforme (Fv). Kind of assay: Growth inhibition assay of fungal pathogens, Fv. It is filed as cell-based. As to conditions: 48 h, growth inhibition at 48 hours vs 2% DMSO control, read-out: Concentration at 90% Inhibition Fv. In a few lines:
as §2

Assay [10] deals with fungal (fACC2) (UniProt Q00955). As to conditions: read-out: fACC2 (in vitro ACC2 Inhibition Assay, IC50); Table 2b, additional results; ADP-Glo, 5 nM ACC2, 20 μM ATP, 20 μM acetyl-CoA. For orientation: ADP-Glo first removes unused ATP, then detects ADP through luciferase.
Assay [11] concerns the target human (hACC2) (Homo sapiens, UniProt O00763). Kind of assay: In vitro ACC inhibition assay (ADP-Glo), hACC2. It is filed as biochemical. The settings on record: Table 2b, additional results, 5 nM ACC2, 20 μM ATP, 20 μM acetyl-CoA. As for the experimental part:
The detailed procedure is as follows. […] 10 μL ADP glo reagent was added. […] 20 μL kinase detection reagent was added.

For assay [12], the system named is C. parapsilosis. Kind of assay: Antifungal Activity Assay (broth microtiter MIC), C. parapsilosis. Type of assay: cell-based, Candida parapsilosis. As to conditions: Lodderomyces parapsilosis, ATCC22019, 48 h, Table 3b (additional results); ATCC 22019; 3 replicates; MIC recorded at 48 h; read-out: MIC, C. parapsilosis ATCC 22019. In a few lines: as §1
The subject of assay [13] is Collectotrichum graminicola (Cg). As to the kind of experiment: Growth inhibition assay of fungal pathogens, Cg. It is filed as cell-based. The settings on record: 48 h, Collectotrichum graminicola; growth inhibition at 48 hours vs 2% DMSO control; read-out: Concentration at 90% Inhibition Cg. The essentials:
as §2

Sequence of human (hACC2) (O00763 whole entry): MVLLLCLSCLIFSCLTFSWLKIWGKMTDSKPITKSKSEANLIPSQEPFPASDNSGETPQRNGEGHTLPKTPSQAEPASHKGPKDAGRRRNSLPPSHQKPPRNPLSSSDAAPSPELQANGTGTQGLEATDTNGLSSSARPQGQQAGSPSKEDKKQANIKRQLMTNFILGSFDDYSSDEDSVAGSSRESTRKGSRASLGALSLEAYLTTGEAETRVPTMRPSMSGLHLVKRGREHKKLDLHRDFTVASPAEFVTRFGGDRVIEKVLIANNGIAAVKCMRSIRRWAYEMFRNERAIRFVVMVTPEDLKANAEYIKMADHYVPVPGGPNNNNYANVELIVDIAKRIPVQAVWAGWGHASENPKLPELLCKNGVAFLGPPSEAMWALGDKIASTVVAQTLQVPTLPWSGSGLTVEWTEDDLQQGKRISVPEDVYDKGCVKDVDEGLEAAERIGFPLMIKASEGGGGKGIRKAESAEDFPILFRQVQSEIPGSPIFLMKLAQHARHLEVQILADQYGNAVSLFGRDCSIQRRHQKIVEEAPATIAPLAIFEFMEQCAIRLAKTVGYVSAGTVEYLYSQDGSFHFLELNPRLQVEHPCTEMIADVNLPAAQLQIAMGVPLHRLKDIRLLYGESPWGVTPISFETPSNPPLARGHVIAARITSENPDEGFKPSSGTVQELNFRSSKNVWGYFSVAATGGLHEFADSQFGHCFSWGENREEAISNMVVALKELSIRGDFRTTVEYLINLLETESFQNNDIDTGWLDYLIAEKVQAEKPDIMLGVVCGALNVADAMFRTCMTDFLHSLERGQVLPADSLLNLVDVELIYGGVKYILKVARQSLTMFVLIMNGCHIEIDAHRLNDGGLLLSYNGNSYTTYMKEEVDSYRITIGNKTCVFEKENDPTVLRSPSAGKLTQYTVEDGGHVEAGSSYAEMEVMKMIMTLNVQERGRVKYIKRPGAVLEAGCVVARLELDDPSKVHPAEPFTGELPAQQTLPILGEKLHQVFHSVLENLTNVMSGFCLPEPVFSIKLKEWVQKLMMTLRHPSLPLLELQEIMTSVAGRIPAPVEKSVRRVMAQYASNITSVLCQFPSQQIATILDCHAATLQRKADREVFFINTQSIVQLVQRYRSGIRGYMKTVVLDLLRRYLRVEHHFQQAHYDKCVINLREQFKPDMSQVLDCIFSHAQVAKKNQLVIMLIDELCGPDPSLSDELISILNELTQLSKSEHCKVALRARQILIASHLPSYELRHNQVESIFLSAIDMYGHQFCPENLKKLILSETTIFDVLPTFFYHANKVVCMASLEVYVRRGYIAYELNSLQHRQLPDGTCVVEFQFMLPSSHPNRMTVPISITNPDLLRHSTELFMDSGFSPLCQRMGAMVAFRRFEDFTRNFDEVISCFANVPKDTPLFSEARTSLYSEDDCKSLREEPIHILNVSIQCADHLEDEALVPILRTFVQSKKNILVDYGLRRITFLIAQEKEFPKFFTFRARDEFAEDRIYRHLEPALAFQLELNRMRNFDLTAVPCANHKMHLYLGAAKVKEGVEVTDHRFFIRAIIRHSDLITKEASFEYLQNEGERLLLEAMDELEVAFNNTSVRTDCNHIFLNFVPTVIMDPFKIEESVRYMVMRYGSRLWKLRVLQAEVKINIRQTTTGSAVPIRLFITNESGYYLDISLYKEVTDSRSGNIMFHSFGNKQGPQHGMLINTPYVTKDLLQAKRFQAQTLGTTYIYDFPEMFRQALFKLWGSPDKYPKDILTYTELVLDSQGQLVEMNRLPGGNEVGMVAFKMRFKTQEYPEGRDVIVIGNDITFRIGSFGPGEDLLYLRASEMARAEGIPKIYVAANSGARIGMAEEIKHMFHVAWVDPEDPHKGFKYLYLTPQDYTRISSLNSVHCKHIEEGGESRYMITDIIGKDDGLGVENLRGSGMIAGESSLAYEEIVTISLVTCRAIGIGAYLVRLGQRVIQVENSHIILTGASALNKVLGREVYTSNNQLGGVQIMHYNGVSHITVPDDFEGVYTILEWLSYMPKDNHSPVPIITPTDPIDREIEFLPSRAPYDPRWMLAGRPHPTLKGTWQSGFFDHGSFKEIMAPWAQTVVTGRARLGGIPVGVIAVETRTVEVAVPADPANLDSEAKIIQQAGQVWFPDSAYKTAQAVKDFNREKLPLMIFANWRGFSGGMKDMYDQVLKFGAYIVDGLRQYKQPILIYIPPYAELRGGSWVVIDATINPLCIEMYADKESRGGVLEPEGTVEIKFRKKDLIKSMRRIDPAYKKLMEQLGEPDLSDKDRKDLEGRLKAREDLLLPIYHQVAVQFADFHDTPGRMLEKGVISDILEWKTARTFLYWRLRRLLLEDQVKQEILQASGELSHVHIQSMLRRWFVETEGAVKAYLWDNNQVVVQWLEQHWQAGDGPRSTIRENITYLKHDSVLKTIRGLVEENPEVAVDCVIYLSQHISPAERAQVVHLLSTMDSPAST
Sequence of fungal (fACC2) (Q00955 whole entry): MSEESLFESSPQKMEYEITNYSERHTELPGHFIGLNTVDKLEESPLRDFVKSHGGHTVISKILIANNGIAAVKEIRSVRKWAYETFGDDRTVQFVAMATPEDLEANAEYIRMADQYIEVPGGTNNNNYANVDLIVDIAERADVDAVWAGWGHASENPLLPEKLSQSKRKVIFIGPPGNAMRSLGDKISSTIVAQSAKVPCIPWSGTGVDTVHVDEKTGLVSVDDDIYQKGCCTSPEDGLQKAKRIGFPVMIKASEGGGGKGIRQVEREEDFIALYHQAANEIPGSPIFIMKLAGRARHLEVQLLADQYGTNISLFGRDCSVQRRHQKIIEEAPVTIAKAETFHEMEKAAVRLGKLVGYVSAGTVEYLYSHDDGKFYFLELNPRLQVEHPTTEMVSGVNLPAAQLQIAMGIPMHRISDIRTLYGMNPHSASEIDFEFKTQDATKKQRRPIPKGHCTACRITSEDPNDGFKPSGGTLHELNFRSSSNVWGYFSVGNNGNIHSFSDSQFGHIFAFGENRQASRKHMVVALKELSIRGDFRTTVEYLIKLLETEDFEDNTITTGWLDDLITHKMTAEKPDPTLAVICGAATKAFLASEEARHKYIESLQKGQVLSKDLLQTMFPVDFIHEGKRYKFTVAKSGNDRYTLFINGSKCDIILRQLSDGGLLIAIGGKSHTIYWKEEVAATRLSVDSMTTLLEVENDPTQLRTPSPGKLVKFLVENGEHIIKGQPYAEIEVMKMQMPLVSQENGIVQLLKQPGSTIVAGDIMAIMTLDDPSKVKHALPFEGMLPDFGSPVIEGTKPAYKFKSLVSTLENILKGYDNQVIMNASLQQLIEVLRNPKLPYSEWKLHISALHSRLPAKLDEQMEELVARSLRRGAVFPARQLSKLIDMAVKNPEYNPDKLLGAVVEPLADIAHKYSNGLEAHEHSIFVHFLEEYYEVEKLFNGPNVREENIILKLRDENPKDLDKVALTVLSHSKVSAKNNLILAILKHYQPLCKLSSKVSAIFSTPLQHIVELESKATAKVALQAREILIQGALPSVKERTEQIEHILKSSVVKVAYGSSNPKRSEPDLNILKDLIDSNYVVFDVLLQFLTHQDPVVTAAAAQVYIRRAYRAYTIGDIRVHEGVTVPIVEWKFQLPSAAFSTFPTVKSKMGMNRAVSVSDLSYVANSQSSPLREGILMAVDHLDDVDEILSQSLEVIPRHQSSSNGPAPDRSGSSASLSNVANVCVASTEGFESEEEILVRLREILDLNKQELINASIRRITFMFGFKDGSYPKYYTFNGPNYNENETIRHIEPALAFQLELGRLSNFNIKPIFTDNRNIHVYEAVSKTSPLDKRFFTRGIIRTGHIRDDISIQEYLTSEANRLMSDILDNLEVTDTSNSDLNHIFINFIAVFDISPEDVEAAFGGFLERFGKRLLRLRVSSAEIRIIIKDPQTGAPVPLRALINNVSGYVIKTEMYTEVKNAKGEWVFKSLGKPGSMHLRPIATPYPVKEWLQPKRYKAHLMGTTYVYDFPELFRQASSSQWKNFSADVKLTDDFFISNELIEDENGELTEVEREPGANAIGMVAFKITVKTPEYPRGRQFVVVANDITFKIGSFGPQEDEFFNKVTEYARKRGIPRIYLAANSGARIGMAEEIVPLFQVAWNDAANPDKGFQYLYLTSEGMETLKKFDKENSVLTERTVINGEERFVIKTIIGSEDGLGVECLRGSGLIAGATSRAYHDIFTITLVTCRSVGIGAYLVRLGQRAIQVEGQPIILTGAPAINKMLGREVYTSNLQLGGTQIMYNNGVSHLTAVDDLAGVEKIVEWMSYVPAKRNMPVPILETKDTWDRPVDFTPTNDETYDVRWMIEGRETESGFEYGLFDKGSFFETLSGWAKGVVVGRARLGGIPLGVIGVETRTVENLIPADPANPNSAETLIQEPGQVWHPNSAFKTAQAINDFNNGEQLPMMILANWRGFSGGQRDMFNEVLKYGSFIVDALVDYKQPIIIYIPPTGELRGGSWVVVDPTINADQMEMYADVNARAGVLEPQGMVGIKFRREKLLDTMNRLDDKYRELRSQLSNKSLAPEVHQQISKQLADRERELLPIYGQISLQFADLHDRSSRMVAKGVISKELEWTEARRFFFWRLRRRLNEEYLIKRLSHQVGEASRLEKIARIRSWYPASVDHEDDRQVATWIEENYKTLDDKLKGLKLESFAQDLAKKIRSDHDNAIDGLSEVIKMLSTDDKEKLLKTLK

Take `COc1ccc(F)cc1[C@@H](O)Cn1c(=O)n([C@H](C)C(=O)N2CCCC2)c(=O)c2c(C)c(-n3nccn3)sc21` [Compound I-195]: the MIC in [1], in assay [3] and in [12] was 1.01 to 2 µg/mL (≈ 1.86 to 3.69 µM) in each case. Also, the IC90 in assay [2] was above 50 µg/mL; in assay [4] it was 0.4 µg/mL (≈ 0.737 µM); in assay [5], 2 µg/mL (≈ 3.69 µM); in assay [6] it was 0.4 µg/mL (≈ 0.737 µM); in [7], above 50 µg/mL; in [8] it was 10 µg/mL (≈ 18.4 µM). The IC90 in assay [9] was 0.4 µg/mL (≈ 0.737 µM); in assay [13], 2 µg/mL (≈ 3.69 µM). Besides, the IC50 lay within 0.3 to 1 nM in [10] and 5 to 10 nM in [11].

As for `COc1ccccc1[C@@H](O)Cn1c(=O)n(C(C)(C)C(N)=O)c(=O)c2c(C)c(-n3nccn3)sc21` [Compound I-196], the MIC in [1] is above 4.01 µg/mL; in assay [3] it was 2.01 to 4 µg/mL (≈ 4.15 to 8.26 µM); in [12], above 4.01 µg/mL. Moreover, the IC90 in assay [2] is above 50 µg/mL; in assay [4] it was 2 µg/mL (≈ 4.13 µM); in assay [5], above 50 µg/mL; in [6], above 50 µg/mL; in [7], above 50 µg/mL; in assay [8] it was above 50 µg/mL. Besides, the IC90 in assay [9] and in [13] was above 50 µg/mL throughout. The IC50 in assay [10] was in the range of 1 to 5 nM; in assay [11], 10 to 40 nM.

`COc1ccc(F)cc1[C@@H](O)Cn1c(=O)n([C@H](C)C(=O)N(C)C(C)C)c(=O)c2c(C)c(-n3nccn3)sc21` [Compound I-197]: the MIC in [1], in assay [3] and in assay [12] was 2.01 to 4 µg/mL (≈ 3.69 to 7.34 µM) in each case. The IC90 is above 50 µg/mL in [2]; 0.4 µg/mL (≈ 0.734 µM) in assay [4]; 0.4 µg/mL (≈ 0.734 µM) in assay [5]; 0.08 µg/mL (≈ 0.147 µM) in [6]; above 50 µg/mL in [7]; 2 µg/mL (≈ 3.67 µM) in assay [8]. Besides, the IC90 in assay [9] worked out at 0.4 µg/mL (≈ 0.734 µM); in assay [13], 2 µg/mL (≈ 3.67 µM). Besides, the results for the IC50 in [10] and in assay [11] were 0.3 to 1 nM and 5 to 10 nM, respectively.

Take `COc1ccc(F)cc1[C@@H](O)Cn1c(=O)n([C@@H](C)C(=O)N(C)C(C)C)c(=O)c2c(C)c(-n3nccn3)sc21` [Compound I-198]: the MIC in assay [1], in assay [3] and in [12] was 2.01 to 4 µg/mL (≈ 3.69 to 7.34 µM) in each case. The IC90 in [2] was above 50 µg/mL; in assay [4], 0.08 µg/mL (≈ 0.147 µM); in assay [5], 0.4 µg/mL (≈ 0.734 µM); in assay [6] it was 0.08 µg/mL (≈ 0.147 µM); in assay [7] it was 10 µg/mL (≈ 18.4 µM); in [8], 0.4 µg/mL (≈ 0.734 µM). The IC90 in assay [9] and in [13] was 0.4 µg/mL (≈ 0.734 µM) in each case. Further, the IC50 in [10] and in assay [11] was 1 to 5 nM in each case.

`COc1ccccc1[C@H](Cn1c(=O)n([C@H](C)C(=O)N(C)C(C)C)c(=O)c2c(C)c(-n3nccn3)sc21)OCCC#N` [Compound I-205]: the MIC in assay [1] is 2.01 to 4 µg/mL (≈ 3.47 to 6.9 µM); in assay [3], 2.01 to 4 µg/mL (≈ 3.47 to 6.9 µM); in assay [12] it was 1.01 to 2 µg/mL (≈ 1.74 to 3.45 µM). The IC90 in [2] was above 50 µg/mL; in assay [4] it was 10 µg/mL (≈ 17.3 µM); in assay [5], 2 µg/mL (≈ 3.45 µM); in assay [6] it was 2 µg/mL (≈ 3.45 µM); in [7], above 50 µg/mL; in [8], 10 µg/mL (≈ 17.3 µM). Further, the IC90 in assay [9] and in assay [13] was 10 µg/mL (≈ 17.3 µM) throughout. Besides, the figures for the IC50 in assay [10] and in assay [11] were 0.3 to 1 nM and 5 to 10 nM, respectively.
